In the data set the target is T1, MRP2 (Homo sapiens, UniProt Q92887).
T1 construct: expressed in transfected cells; host or cells: MDCK II
Nature of the data set: Transport of baicalin across MDCK II-MRP2 cell monolayer (transwell). The format is in vitro ADME. The method, then: The cells were inoculated at a density of 0.5 mL (1 × 10^5) in the upper layer of the transwell plate (AP side), and the culture was changed daily after the lower layer was added with 1.5 mL of complete medium without cells every other day. After 5–7 days of growth, the supernatant was aspirated and discarded, and the cell monolayer was rinsed twice with 37 °C Hank’s Balanced Salt Solution (HBSS, pH 7.4). The electrical resistance of the cell monolayer compartments was measured with a resistivity meter (TEER), and the integrity of the cell monolayer was monitored using TEER. The differentiation of MDCK II-WT, MDCK II-MRP2, MDCK II-MRP3, and MDCK II-BCRP cells was examined by determining sodium fluorescein permeability prior to transit experiments. This was done in order to determine the integrity of the cell monolayer. When the TEER value of the cell monolayer was greater than 150 Ω·cm^2 and the MDCK II-MRP2, MDCK II-MRP3, and MDCK II-BCRP sodium fluorescein permeability was less than 0.5 × 10^−6 cm/s or the MDCK II-WT sodium fluorescein permeability was less than 1 × 10^−6 cm/s, the cell monolayer was considered intact and suitable for transit experiments. TEER = (TEERcell monolayer − TEERblank) × Aarea(1) wherein TEERcell monolayer is the resistance of the cell monolayer read directly from the Millicell ERS-2 resistivity meter, and TEERblank is the resistance read by inserting a blank HBSS (no cells) only. Aarea is the surface area of the filter membrane, 1.12 cm^2.
In this experiment, a 100 μM baicalin solution (dissolved in HBSS) containing different concentrations of PEG400 (0.25%, 0.5%, and 1%) was employed as the test solution, while a solution without PEG400 was used as the blank test solution, which was added to AP or BL chambers, respectively. In the top to basolateral (AP-BL) transport experiment, the 0.5 mL sample added to the apical side (AP) was utilized as the supply room, and the HBSS preheated to 1.5 mL 37 °C was added to the basolateral (BL) as the receiving chamber. Conversely, in the basal low lateral to top (BL-AP) transport experiment, the 1.5 mL sample (dissolved in HBSS) was added to the BL side as the supply room, and the 0.5 mL preheated HBSS was added as a receiving room on the AP side. Once the aforementioned steps had been completed, the transwell was placed on a 37 °C thermostatic oscillator at 60 r/min, and 100 μL was withdrawn from the receiving cell or 10 μL from the supply chamber at 30, 60, 90, and 120 min, depending on the experiment, and replenished with an equal volume of blank 37 °C preheated HBSS. The samples were utilized to precipitate the proteins with 100 μL of methanol containing the internal standard for 10 min. After centrifugation at 16,000× g for 15 min at 4 °C, the supernatant was collected in a volume of 70 μL. The contents were determined by UPLC-MS/MS, and apparent permeability coefficients (PAPP) and efflux ratios (ER) were calculated.
The formulas for calculating Papp and ER of monolayer and monolayer are as follows:(2) Papp=dQ/dt/AC0 wherein dQ/dt (ng/mL·s) is the transit rate (ng/mL·s); A is the membrane area (1.12 cm^2); and C0 (ng/mL) is the initial concentration of the sample in the supply chamber. ER = PappBL-AP/PappAP-BL (3) wherein PappBL-AP is the apparent permeability coefficient when the BL is added to the sample, and PappAP-BL is the apparent permeability coefficient when the sample is added at the top side (AP).

Setting [1] is: pH 7.4, MDCK II-MRP2, 100 μM BG + 0.25% PEG400.
[2] abbreviates: pH 7.4, MDCK II-MRP2, 100 μM BG + 0.5% PEG400.
[3] abbreviates: pH 7.4, MDCK II-MRP2, 100 μM BG + 1% PEG400.
[4] abbreviates: pH 7.4, MDCK II-MRP2, 100 μM BG alone.

SMILES strings stand for the structures. Read-outs that look alike come from different tables or passages of the source.

T1 sequence (Q92887 whole entry): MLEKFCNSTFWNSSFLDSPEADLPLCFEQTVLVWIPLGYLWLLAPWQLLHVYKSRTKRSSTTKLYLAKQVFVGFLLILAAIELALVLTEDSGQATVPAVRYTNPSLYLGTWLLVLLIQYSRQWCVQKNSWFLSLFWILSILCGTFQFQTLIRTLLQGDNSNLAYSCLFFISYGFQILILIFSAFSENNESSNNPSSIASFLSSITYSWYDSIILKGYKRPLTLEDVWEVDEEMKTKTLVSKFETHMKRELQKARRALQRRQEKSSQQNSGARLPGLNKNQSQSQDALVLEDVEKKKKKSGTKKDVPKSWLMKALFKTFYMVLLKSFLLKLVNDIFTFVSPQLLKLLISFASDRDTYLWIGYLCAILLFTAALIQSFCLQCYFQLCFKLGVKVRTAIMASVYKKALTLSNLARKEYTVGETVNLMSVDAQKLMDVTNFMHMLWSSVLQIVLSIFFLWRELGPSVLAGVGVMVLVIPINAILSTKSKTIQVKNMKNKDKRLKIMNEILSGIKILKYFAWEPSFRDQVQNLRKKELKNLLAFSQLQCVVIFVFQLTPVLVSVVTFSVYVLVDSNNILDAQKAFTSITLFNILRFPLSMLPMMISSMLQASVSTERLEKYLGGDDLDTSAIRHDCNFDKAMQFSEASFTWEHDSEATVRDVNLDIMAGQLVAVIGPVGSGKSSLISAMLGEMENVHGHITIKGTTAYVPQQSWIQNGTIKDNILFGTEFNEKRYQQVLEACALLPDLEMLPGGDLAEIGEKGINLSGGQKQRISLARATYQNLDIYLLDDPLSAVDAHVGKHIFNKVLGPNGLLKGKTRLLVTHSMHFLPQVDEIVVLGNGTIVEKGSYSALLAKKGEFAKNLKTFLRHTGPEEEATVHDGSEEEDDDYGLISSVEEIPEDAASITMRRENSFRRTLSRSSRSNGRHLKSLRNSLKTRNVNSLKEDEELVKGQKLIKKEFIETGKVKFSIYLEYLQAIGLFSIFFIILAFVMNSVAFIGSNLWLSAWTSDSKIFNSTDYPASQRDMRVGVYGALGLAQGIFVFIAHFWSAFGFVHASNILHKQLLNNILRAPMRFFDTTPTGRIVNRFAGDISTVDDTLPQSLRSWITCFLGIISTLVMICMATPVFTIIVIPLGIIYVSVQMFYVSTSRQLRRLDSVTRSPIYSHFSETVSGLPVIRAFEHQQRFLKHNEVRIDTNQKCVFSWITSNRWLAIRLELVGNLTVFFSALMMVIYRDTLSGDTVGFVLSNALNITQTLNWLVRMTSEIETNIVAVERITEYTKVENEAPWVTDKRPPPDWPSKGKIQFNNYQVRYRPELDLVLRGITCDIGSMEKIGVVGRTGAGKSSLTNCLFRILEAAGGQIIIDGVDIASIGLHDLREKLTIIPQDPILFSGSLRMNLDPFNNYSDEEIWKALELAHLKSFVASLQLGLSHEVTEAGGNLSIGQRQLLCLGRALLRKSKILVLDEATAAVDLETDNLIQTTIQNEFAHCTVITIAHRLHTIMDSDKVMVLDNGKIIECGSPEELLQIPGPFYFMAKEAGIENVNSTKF

Take `O=C(O)[C@H]1O[C@@H](Oc2cc3oc(-c4ccccc4)cc(=O)c3c(O)c2O)[C@H](O)[C@@H](O)[C@@H]1O` [BG, Baicalein-7-O-β-D-glucuronide]: the apical-to-basolateral permeability (Papp A→B) – broadly, how fast a substance crosses the layer from the apical side – at 120 min, 100 μM under setting [1] amounted to 1.27 ± 0.02 ×10⁻⁶ cm/s; the Papp A→B at 120 min, 100 μM under setting [2] is 2.51 ± 0.07 ×10⁻⁶ cm/s; the Papp A→B at 120 min, 100 μM under setting [3] was determined as 3.17 ± 0.06 ×10⁻⁶ cm/s; the Papp A→B at 120 min, 100 μM under setting [4] worked out at 1.12 ± 0.11 ×10⁻⁶ cm/s. Moreover, the Papp B→A – broadly, the apparent permeability from the basolateral to the apical side of a cell layer – at 120 min, 100 μM runs as follows: under setting [1], 2.83 ± 0.26 ×10⁻⁶ cm/s; under setting [2], 2.73 ± 0.31 ×10⁻⁶ cm/s; under setting [3], 2.53 ± 0.17 ×10⁻⁶ cm/s; under setting [4], 3.28 ± 0.27 ×10⁻⁶ cm/s. Further, the efflux ratio at 120 min, 100 μM by setting is: (pH 7.4, MDCK II-MRP2, 100 μM BG + 0.25% PEG400, read-out: ER) 2.22 ± 0.17; (pH 7.4, MDCK II-MRP2, 100 μM BG + 0.5% PEG400, read-out: ER) 1.08 ± 0.09; (pH 7.4, MDCK II-MRP2, 100 μM BG + 1% PEG400, read-out: ER) 0.8 ± 0.04; (pH 7.4, MDCK II-MRP2, 100 μM BG alone, read-out: ER) 2.45 ± 0.04.

The record behind these values is PMC11206988, “Study on the Effect of Pharmaceutical Excipient PEG400 on the Pharmacokinetics of Baicalin in Cells Based on MRP2, MRP3, and BCRP Efflux Transporters” (Pharmaceutics, 2024).
